Patent publication US20260241012A1, “1,8-NAPHTHYRIDIN-2-ONE HETEROBIFUNCTIONAL BCL6 DEGRADERS” (Treeline Biosciences, Inc., priority 2022, published 2026)

Molecular target: T1, N-terminal HiBiT tagged BCL6 (Homo sapiens, UniProt P41182)
T1 construct: expressed in transfected cells; host or cells: HT1080 (ATCC CCL-121), stably transduced with lentivirus pLV-UBC-N-HiBiT-BCL6-PGK-puro
Test: HiBiT based degradation assay
Format: cell-based
Settings: HT1080 cells expressing N-terminal HiBiT tagged BCL6, 5 hours of incubation; for Ymin (5 hr): BCL6 degradation normalized with DMSO control; for DC50: four-parameter logistic model, read-out: EC50 (5 hr)
How it was run: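 Degradation measured by luminescence from the Nano-Glo HiBiT lytic reagent (15 min, room temperature), normalized to DMSO controls and fitted to a four-parameter curve.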

SMILES	Ymin (5 hr)	DC50
CNC(=O)COc1cc2cc(Nc3nc(N4CC[C@H](CN5CCN(c6ccc7c(C8CCC(=O)NC8=O)nn(C)c7c6)CC5)[C@H](C)C4)ncc3Cl)cnc2n(C(C)C)c1=O (stereo partly drawn) [Compound 176a, 2-((6-((5-chloro-2-((3S,4S)-4-((4-(3-(2,6-dioxopiperidin-3-yl)-1-methyl-1H-indazol-6-yl)piperazin-1-yl)methyl)-3-methylpiperidin-1-yl)pyrimidin-4-yl)amino)-1-isopropyl-2-oxo-1,2-dihydro-1,8-naphthyridin-3-yl)oxy)-N-methylacetamide]	+++ (30% ≤ Ymin < 50%)	< 10 nM
CNC(=O)COc1cc2cc(Nc3nc(N4CC[C@H](CN5CCN(c6ccc7c(C8CCC(=O)NC8=O)nn(C)c7c6)CC5)[C@@H](C)C4)ncc3Cl)cnc2n(C(C)C)c1=O (stereo partly drawn) [Compound 176b, 2-((6-((5-chloro-2-((3R,4S)-4-((4-(3-(2,6-dioxopiperidin-3-yl)-1-methyl-1H-indazol-6-yl)piperazin-1-yl)methyl)-3-methylpiperidin-1-yl)pyrimidin-4-yl)amino)-1-isopropyl-2-oxo-1,2-dihydro-1,8-naphthyridin-3-yl)oxy)-N-methylacetamide]	+++ (30% ≤ Ymin < 50%)	< 10 nM
CNC(=O)COc1cc2cc(Nc3nc(N4CC[C@@H](CN5CCN(c6ccc7c(C8CCC(=O)NC8=O)nn(C)c7c6)CC5)[C@@H](C)C4)ncc3Cl)cnc2n(C(C)C)c1=O (stereo partly drawn) [Compound 176c, 2-((6-((5-chloro-2-((3R,4R)-4-((4-(3-(2,6-dioxopiperidin-3-yl)-1-methyl-1H-indazol-6-yl)piperazin-1-yl)methyl)-3-methylpiperidin-1-yl)pyrimidin-4-yl)amino)-1-isopropyl-2-oxo-1,2-dihydro-1,8-naphthyridin-3-yl)oxy)-N-methylacetamide]	+++ (30% ≤ Ymin < 50%)	10 to 100 nM
CNC(=O)COc1cc2cc(Nc3nc(N4CC[C@@H](CN5CCN(c6ccc7c(C8CCC(=O)NC8=O)nn(C)c7c6)CC5)[C@H](C)C4)ncc3Cl)cnc2n(C(C)C)c1=O (stereo partly drawn) [Compound 176d, 2-[[6-[[5-chloro-2-[(3S,4R)-4-[[4-[3-(2,6-dioxo-3-piperidyl)-1-methyl-indazol-6-yl]piperazin-1-yl]methyl]-3-methyl-1-piperidyl]pyrimidin-4-yl]amino]-1-isopropyl-2-oxo-1,8-naphthyridin-3-yl]oxy]-N-methyl-acetamide]	+++ (30% ≤ Ymin < 50%)	< 10 nM
CNC(=O)COc1cc2cc(Nc3nc(N4CC[C@H](CN5CCN(c6cccc7c(C8CCC(=O)NC8=O)nn(C)c67)CC5)[C@H](C)C4)ncc3Cl)cnc2n(C(C)C)c1=O (stereo partly drawn) [Compound 177a, 2-((6-((5-chloro-2-((3S,4S)-4-((4-(3-(2,6-dioxopiperidin-3-yl)-1-methyl-1H-indazol-7-yl)piperazin-1-yl)methyl)-3-methylpiperidin-1-yl)pyrimidin-4-yl)amino)-1-isopropyl-2-oxo-1,2-dihydro-1,8-naphthyridin-3-yl)oxy)-N-methylacetamide]	++++ (Ymin < 30%)	10 to 100 nM
CNC(=O)COc1cc2cc(Nc3nc(N4CC[C@@H](CN5CCN(c6cccc7c(C8CCC(=O)NC8=O)nn(C)c67)CC5)[C@@H](C)C4)ncc3Cl)cnc2n(C(C)C)c1=O (stereo partly drawn) [Compound 177b, 2-[[6-[[5-chloro-2-[(3R,4R)-4-[[4-[3-(2,6-dioxo-3-piperidyl)-1-methyl-indazol-7-yl]piperazin-1-yl]methyl]-3-methyl-1-piperidyl]pyrimidin-4-yl]amino]-1-isopropyl-2-oxo-1,8-naphthyridin-3-yl]oxy]-N-methyl-acetamide]	+++ (30% ≤ Ymin < 50%)	10 to 100 nM
CNC(=O)COc1cc2cc(Nc3nc(N4CC[C@@H](CN5CCN(c6cccc7c(C8CCC(=O)NC8=O)nn(C)c67)CC5)[C@H](C)C4)ncc3Cl)cnc2n(C(C)C)c1=O (stereo partly drawn) [Compound 177c, 2-[[6-[[5-chloro-2-[(3S,4R)-4-[[4-[3-(2,6-dioxo-3-piperidyl)-1-methyl-indazol-7-yl]piperazin-1-yl]methyl]-3-methyl-1-piperidyl]pyrimidin-4-yl]amino]-1-isopropyl-2-oxo-1,8-naphthyridin-3-yl]oxy]-N-methyl-acetamide]	+++ (30% ≤ Ymin < 50%)	100 to 1000 nM
CNC(=O)COc1cc2cc(Nc3nc(N4CC[C@H](CN5CCN(c6cccc7c(C8CCC(=O)NC8=O)nn(C)c67)CC5)[C@@H](C)C4)ncc3Cl)cnc2n(C(C)C)c1=O (stereo partly drawn) [Compound 177d, 2-((6-((5-chloro-2-((3R,4S)-4-((4-(3-(2,6-dioxopiperidin-3-yl)-1-methyl-1H-indazol-7-yl)piperazin-1-yl)methyl)-3-methylpiperidin-1-yl)pyrimidin-4-yl)amino)-1-isopropyl-2-oxo-1,2-dihydro-1,8-naphthyridin-3-yl)oxy)-N-methylacetamide]	++++ (Ymin < 30%)	10 to 100 nM
CNC(=O)COc1cc2cc(Nc3nc(N4CCC(CN5CC6CC(C5)N6c5cccc6c(C7CCC(=O)NC7=O)nn(C)c56)CC4)ncc3Cl)cnc2n(C(C)C)c1=O (stereo not shown) [Compound 187, 2-[[6-[[5-chloro-2-[4-[[6-[3-(2,6-dioxo-3-piperidyl)-1-methyl-indazol-7-yl]-3,6-diazabicyclo[3.1.1]heptan-3-yl]methyl]-1-piperidyl]pyrimidin-4-yl]amino]-1-isopropyl-2-oxo-1,8-naphthyridin-3-yl]oxy]-N-methyl-acetamide]	+++ (30% ≤ Ymin < 50%)	10 to 100 nM

The next lines start with the values.

Ymin (5 hr)	DC50	SMILES
+++ (30% ≤ Ymin < 50%)	< 10 nM	CNC(=O)COc1cc2cc(Nc3nc(N4CCC(O)(CN5CCN(c6cccc7c(C8CCC(=O)NC8=O)nn(C)c67)CC5)CC4)ncc3Cl)cnc2n(C(C)C)c1=O (stereo not shown) [Compound 178, 2-[[6-[[5-chloro-2-[4-[[4-[3-(2,6-dioxo-3-piperidyl)-1-methyl-indazol-7-yl]piperazin-1-yl]methyl]-4-hydroxy-1-piperidyl]pyrimidin-4-yl]amino]-1-isopropyl-2-oxo-1,8-naphthyridin-3-yl]oxy]-N-methyl-acetamide]
+++ (30% ≤ Ymin < 50%)	100 to 1000 nM	CNC(=O)COc1cc2cc(Nc3nc(N4C[C@H](C)N(CC5CCN(c6cccc7c(C8CCC(=O)NC8=O)nn(C)c67)CC5)C[C@H]4C)ncc3Cl)cnc2n(C(C)C)c1=O (stereo partly drawn) [Compound 179a, 2-[[6-[[5-chloro-2-[(2R,5S)-4-[[1-[3-(2,6-dioxo-3-piperidyl)-1-methyl-indazol-7-yl]-4-piperidyl]methyl]-2,5-dimethyl-piperazin-1-yl]pyrimidin-4-yl]amino]-1-isopropyl-2-oxo-1,8-naphthyridin-3-yl]oxy]-N-methyl-acetamide]
+++ (30% ≤ Ymin < 50%)	100 to 1000 nM	CNC(=O)COc1cc2cc(Nc3nc(N4C[C@@H](C)N(CC5CCN(c6cccc7c(C8CCC(=O)NC8=O)nn(C)c67)CC5)C[C@@H]4C)ncc3Cl)cnc2n(C(C)C)c1=O (stereo partly drawn) [Compound 179b, 2-[[6-[[5-chloro-2-[(2S,5R)-4-[[1-[3-(2,6-dioxo-3-piperidyl)-1-methyl-indazol-7-yl]-4-piperidyl]methyl]-2,5-dimethyl-piperazin-1-yl]pyrimidin-4-yl]amino]-1-isopropyl-2-oxo-1,8-naphthyridin-3-yl]oxy]-N-methyl-acetamide]
+++ (30% ≤ Ymin < 50%)	10 to 100 nM	CNC(=O)COc1cc2cc(Nc3nc(N4CC5(CCC(Oc6cccc7c(C8CCC(=O)NC8=O)nn(C)c67)CC5)C4)ncc3Cl)cnc2n(C(C)C)c1=O (stereo not shown) [Compound 181, 2-[[6-[[5-chloro-2-[7-[3-(2,6-dioxo-3-piperidyl)-1-methyl-indazol-7-yl]oxy-2-azaspiro[3.5]nonan-2-yl]pyrimidin-4-yl]amino]-1-isopropyl-2-oxo-1,8-naphthyridin-3-yl]oxy]-N-methyl-acetamide]
++++ (Ymin < 30%)	< 10 nM	CNC(=O)COc1cc2cc(Nc3nc(N4CC5(CCC(Nc6ccc7c(C8CCC(=O)NC8=O)nn(C)c7c6)CC5)C4)ncc3Cl)cnc2n(C(C)C)c1=O (stereo not shown) [Compound 182, 2-((6-((5-chloro-2-(7-((3-(2,6-dioxopiperidin-3-yl)-1-methyl-1H-indazol-6-yl)amino)-2-azaspiro[3.5]nonan-2-yl)pyrimidin-4-yl)amino)-1-isopropyl-2-oxo-1,2-dihydro-1,8-naphthyridin-3-yl)oxy)-N-methylacetamide]
++++ (Ymin < 30%)	< 10 nM	CNC(=O)COc1cc2cc(Nc3nc(N4CC5(CCC(Oc6ccc7c(C8CCC(=O)NC8=O)nn(C)c7c6)CC5)C4)ncc3Cl)cnc2n(C(C)C)c1=O (stereo not shown) [Compound 183, 2-[[6-[[5-chloro-2-[7-[3-(2,6-dioxo-3-piperidyl)-1-methyl-indazol-6-yl]oxy-2-azaspiro[3.5]nonan-2-yl]pyrimidin-4-yl]amino]-1-isopropyl-2-oxo-1,8-naphthyridin-3-yl]oxy]-N-methyl-acetamide]
++++ (Ymin < 30%)	< 10 nM	CNC(=O)COc1cc2cc(Nc3nc(N4CC5(CCC(Nc6cc7c(cc6F)c(C6CCC(=O)NC6=O)nn7C)CC5)C4)ncc3Cl)cnc2n(C(C)C)c1=O (stereo not shown) [Compound 184, 2-[[6-[[5-chloro-2-[7-[[3-(2,6-dioxo-3-piperidyl)-5-fluoro-1-methyl-indazol-6-yl]amino]-2-azaspiro[3.5]nonan-2-yl]pyrimidin-4-yl]amino]-1-isopropyl-2-oxo-1,8-naphthyridin-3-yl]oxy]-N-methyl-acetamide]
++++ (Ymin < 30%)	10 to 100 nM	CNC(=O)COc1cc2cc(Nc3nc(N4CCN(CC5CCN(c6cccc7c(C8CCC(=O)NC8=O)nn(C)c67)CC5)CC4)ncc3Cl)cnc2n(CCO)c1=O (stereo not shown) [Compound 186, 2-((6-((5-chloro-2-(4-((1-(3-(2,6-dioxopiperidin-3-yl)-1-methyl-1H-indazol-7-yl)piperidin-4-yl)methyl)piperazin-1-yl)pyrimidin-4-yl)amino)-1-(2-hydroxyethyl)-2-oxo-1,2-dihydro-1,8-naphthyridin-3-yl)oxy)-N-methylacetamide]
